From ChEMBL document CHEMBL3797121, “Novel nucleoside-based antimalarial compounds” (Bioorg Med Chem Lett, 2016)

Key:
Plasmodium falciparum = experiment: Antimalarial activity against erythrocytic stage of Plasmodium falciparum K1 after 18 hrs by [3H]-hypoxanthine incorporation assay; type: functional, organism-based
L6 = experiment: Cytotoxicity against rat L6 cells; type: cell-based
[1] = Selectivity index, ratio of IC50 for rat L6 cells to IC50 for erythrocytic stage of Plasmodium falciparum K1; type: toxicity, cell-based; conditions: read-out: Ratio IC50

SMILES | IC50 (Plasmodium falciparum) [µM] | IC50 (L6) [µM] | selectivity ratio [1]
C[C@H]1O[C@@H](n2cnc3c(N)nc(N)nc32)[C@H](O)[C@@H]1O | 15.6 | 338 | 22
C[C@H]1O[C@@H](n2cnc3c(N)nc(Cl)nc32)[C@H](O)[C@@H]1O | 17.5 | 147 | 8
CNc1nc(C#N)nc2c1ncn2[C@@H]1O[C@H](C)[C@@H](O)[C@H]1O | 31.2 | 85 | 3
C[C@H]1O[C@@H](n2cnc3c(N)nc(I)nc32)[C@H](O)[C@@H]1O | 55.9 | 110 | 2
CCN(CC)CCCC(C)Nc1ccnc2cc(Cl)ccc12 (centres undefined) [CHLOROQUINE] | – | 120 | –
C[C@H]1O[C@@H](n2cnc3c(N)nc(NN)nc32)[C@H](O)[C@@H]1O | 42 | 188 | 4
C[C@H]1O[C@@H](n2cnc3c(N)nc(N=[N+]=[N-])nc32)[C@H](O)[C@@H]1O | 108 | 181 | 2
CNc1nc(F)nc2c1ncn2[C@@H]1O[C@H](C)[C@@H](O)[C@H]1O | 11.5 | 236 | 21
CNc1ncnc2c1ncn2[C@@H]1O[C@H](C)[C@@H](O)[C@H]1O | 9.01 | 266 | 30
C[C@H]1O[C@@H](n2cnc3c(N)nc(C#N)nc32)[C@H](O)[C@@H]1O | 33.5 | 177 | 5
CNc1nc(I)nc2c1ncn2[C@@H]1O[C@H](C)[C@@H](O)[C@H]1O | 64.9 | 137 | 2
C[C@H]1O[C@@H](n2cnc3c(N)nc(F)nc32)[C@H](O)[C@@H]1O | 1 | 2.1 | 2
